The source of these data is patent US20260151363A1, “MELANOGENESIS INHIBITION COMPOSITIONS AND METHODS OF USE THEREOF” (MDI BIOLOGICAL LABORATORY, priority 2023, published 2026).

One data set has as its system melanin production. Briefly: Melanin production and toxicity, ML233 analogs in parallel with ML233 (serial dilution). Conditions: for toxicity: 25 μM. Here is the method: The ML233 analogs were tested in parallel with serial dilution in DMSO: at 25 μM, 12.5 μM, […], 3.12 5 μM, 1.5625 μM and […].
For another data set, the system named is mitfa and tyr genes. The experiment in a line: In situ hybridization of mitfa and tyr in zebrafish embryos. It is filed as in vivo. The note with it: for tyr mRNA detection (in situ hybridization): embryos at 48 hpf, treated between 24 and 48 hpf. The procedure: (§1) Example 10: Tyrosinase gene expression was not abolished by ML233 treatmentTo better understand the molecular action of ML233 on skin pigmentation and melanogenesis, the expression of genes involved in melanogenesis, including tyrosinase (tyr), dopachrome tautomerase (dct), and microphthalmia-associated transcription factor (mitfa), the latter which is known to control melanocyte formation and TYR expression, was analyzed.

The test system of data set [1] is tyrosinase. The experiment in a line: In vitro tyrosinase activity (FIG. 3B). It is filed as biochemical. The note with it: compared to DMSO. An excerpt:
The effect of ML233 on tyrosinase activity was also explored in in vitro experiments.

The subject of data set [2] is zebrafish embryos. The experiment in a line: Zebrafish embryo viability / toxicity. In kind it is in vivo. The note with it: 2.5, five. An excerpt:
Studies were undertaken to evaluate the effect of ML233 on embryo viability. […] The number of viable and dead embryos at 1 day post fertilization (dpf), 2 dpf, 3 dpf and 4 dpf and at various doses of ML233 was compared to embryo viability in negative controls, which included embryos treated with the carrier DMSO or untreated embryos. (FIG. 4A).

In data set [3] the test system is zebrafish embryos. Briefly: Pigmentation of zebrafish embryos (micrographs). In kind it is in vivo. The procedure: Zebrafish embryos were allowed to develop in the presence of ML233 and the effects of ML233 on pigmentation was analyzed. ML233 was dissolved in carrier Dimethylsulfoxide (DMSO). Embryos were exposed to ML233 beginning at four hours post-fertilization and ending at 48 hours post-fertilization. Dimethylsulfoxide (DMSO) was used as a negative control. ML233 dosages tested were 2.5 micromolar, five micromolar, and 10 micromolar (FIG. 1A).
The effect of ML233 on pigmentation was analyzed in zebrafish embryos at 38 hours post-fertilization when larvae were highly pigmented. Embryos were treated with ML233 at the following concentrations: 5 micromolar, 10 micromolar, and 15 micromolar. The carrier, DMSO, was used as a negative control. Pigmentation was analyzed six hours (FIG. 2A) and 24 hours after ML233 addition (FIG. 2B).

The subject of data set [4] is B16F10 murine melanoma cells. Briefly: Melanin production in B16F10 cells (OD 410, IBMX-stimulated). In kind it is cell-based. Here is the method:
To determine if ML233 could inhibit pigmentation of […] cells at low ML233 concentrations (without effects on cell proliferation), melanin production was analyzed in B16F10 cells after 24 hours of treatment with 0.625 μM, 1.25 μM, 2.5 μM, or 5 μM of ML233. Observation of cell pellets after centrifugation confirmed that ML233 function to inhibit melanin production was conserved in mammals (data not shown). The effect of ML233 and 3-isobutyl-1-methylxanthine (IBMX) on melanin production was analyzed in B16F10 murine melanoma cells. IBMX is a non-selective phosphodiesterase inhibitor, which induced melanin production in B16F10 murine melanoma cells. Melanin production was measured in cells treated with IBMX alone (100 micromolar), and IBMX in conjunction with: 0.625 micromolar ML233, 1.25 micromolar ML233, 2.5 micromolar ML233, and five micromolar ML233, as well as in negative control cells treated with DMSO vehicle alone. Melanin production in treated cells was measured using optical density (FIG. 6A) at a wavelength of 410 nm (OD value 410). Ratios with the total quantity of protein (OD value 562) were calculated (FIG. 6B). […] P-values are indicated in the bar charts.

Data set [5] relates to ME1154B human melanoma line. The experiment in a line: cells. In kind it is cell-based. Conditions: ME1154B 3D organoids, read-out: IC50 viability/proliferation. The procedure:
(§2) Because ML233 affected B16F10 murine melanoma-cell proliferation, the proliferative potential of human metastatic melanoma was determined. Patient-derived xenograft organoids (PDXOs), which were 3D in vitro models generated from patient tumors, were used. The effect of ML233 treatment (between 0.001 μM and 10 μM) in two different human melanoma cell lines collected from metastasis, ME1154B and ME2319B (Crown Bioscience). These two melanoma lines differed in their sensitivity to both ML233 and the control molecule, staurosporine (STS), in 3D organoids (FIGS. 12A-12B).

The test system of data set [6] is zebrafish embryos. The experiment in a line: Bulk RNAseq and GSEA in WT and aplnr KO zebrafish embryos. In kind it is in vivo. The note with it: 0.5 μM. An excerpt: Because ML233 is an agonist of the apelin receptors, ML233 driven differential expression in an apelin dependent and independent manner was investigated. […] A clear separation in gene expression between the WT and KO backgrounds was observed (FIG. 10C).

Data set [7] concerns tyrosinase. Briefly: Tyrosinase expression by Western blot and densitometry (FIG. 9). Conditions: 15 μM. Here is the method:
An analysis of tyrosinase expression after ML233 treatment was performed. […] Quantitative analysis was also performed using densitometry of tyrosinase expression after ML233 treatment at 15 μM of the Western blot data (FIG. 9B). DMSO was a negative control, while phenylthiourea (PTU), which is a potent inhibitor of human tyrosinase), was used as a positive control. CRISPR was used as a specificity control of the antibody used in the analysis, where CRISPR was directed against the tyrosinase gene.
(A western blot detects proteins with antibodies after separation by electrophoresis.)

The subject of data set [8] is tyrosinase. The experiment in a line: Tyrosinase activity in treated zebrafish embryos (absorbance of L-DOPA). It is filed as in vivo. Here is the method: To determine the effect of ML233 on tyrosinase activity, zebrafish embryos were treated with ML233 at the following concentrations: 0.5 micromolar, 1.25 micromolar, 2.5 micromolar, five micromolar, 10 micromolar, and 15 micromolar ML233 (FIG. 3A). DMSO was used as a carrier and the tyrosinase inhibitor PTU was used as a positive control.

Data set [9] has as its system tyr, dct, and mitfa mRNA expression. The experiment in a line: RT-qPCR of tyr, dct and mitfa mRNA in zebrafish embryos. In kind it is in vivo. Here is the method:
as §1

In the next data set the test system is B16F10 (murine melanoma). Briefly: Tyrosinase protein expression (Western blot) and pigmentation in B16F10 cells. In kind it is cell-based. The note with it: 5 μM. Here is the method:
To study these two possibilities, an antibody raised against the human tyrosinase protein was used. The capacity of the antibody to recognize TYR in two different mammalian cell lines (FIG. 11A): B16F10 (murine melanoma) and A375 (human melanoma) was tested. Using the validated antibody, the level of tyrosinase protein expression by Western blot in control DMSO and 5 μM ML233 treated cells (FIG. 11B) was analyzed.

The test system of data set [10] is zebrafish embryos. Briefly: Percent melanin quantity in zebrafish embryos. It is filed as in vivo. Here is the method:
The effect of ML233 on percent melanin quantity was assayed in zebrafish embryos beginning at 4 hours post-fertilization and ending at 48 hours. Developing embryos were treated with ML233 in DMSO carrier at varying dosages, or DMSO as a negative control or with phenylthiourea (PTU) as a positive control.

The next data set concerns mushroom TYR. The experiment in a line: Mushroom TYR conversion of L-DOPA to melanin in vitro (FIG. 3C). In kind it is biochemical. Conditions: 20 μM; compared to DMSO. The procedure: To determine whether ML233, a small inhibitor of melanogenesis, acts directly on tyrosinase (TYR) activity in vitro, the activity of mushroom TYR was assessed via measurement of its capacity to convert L-DOPA to melanin in vitro using Kojic Acid at 100 μM as a positive control.

Data set [11] has as its system B16F10 murine melanoma cell line. Briefly: B16F10 melanoma cell proliferation / viability. Conditions: Mus musculus, B16-F10. It is filed as cell-based. The procedure:
ML233 reduced pigmentation in a mammalian melanoma cell line. In vivo, in vitro, and computational studies described here supported the hypothesis that ML233 was a direct inhibitor of TYR protein expression and function. The effects of ML233 and cisplatin on the proliferation of B16F-10 murine melanoma cells in vitro was analyzed. To determine the effects of conservation in higher vertebrate species, ML233 activity in the B16F10 murine melanoma cell line was tested. B16F10-cell proliferation was analyzed after ML233 treatment to determine IC50. A 50% reduction in cell viability at concentrations of ML233 between 5 and 10 μM was observed (FIG. 5A). Cells were treated with various concentration of ML233 or cisplatin and the cell viability of control percent versus the concentration of ML233 or cisplatin (in μM) was analyzed (FIGS. 5A and 5B).

For data set [12], the system named is ME2319B human melanoma line. The experiment in a line: PDXO viability/proliferation, ME2319B. It is filed as cell-based. The note with it: ME2319B 3D organoids. The procedure: as §2
Setting [13] is: serial dilution 25 μM to 0.78125.

pIC50: −log10 of the molar value. Read-outs that look alike come from different tables or passages of the source.

In the case of `CC1=C/C(=N/OS(=O)(=O)c2ccccc2)C(C(C)C)=CC1=O` [(i), [(Z)-(5-methyl-4-oxo-2-propan-2-ylcyclohexa-2,5-dien-1-ylidene)amino]benzenesulfonate], in the data set on melanin production, the toxicity result was “higher toxicity”. The “inhibition of melanin production” value in the data set on melanin production (setting [13]) is given as “Inhibition of melanin production was also observed”.
`NC(=S)Nc1ccccc1` [PTU, phenylthiourea, reference compound]: in the data set on mitfa and tyr genes, the “tyr mRNA detection (in situ hybridization)” value is on record as “highly detectable”.
Regarding `CC1=CC(=O)C(C2CCCCC2)=C/C1=N\OS(=O)(=O)c1ccccc1` [ML233, (E)-2-cyclohexyl-5-methyl-4-(phenylsulfonyloxyimino)cyclohexa-2,5-dienone], the “reduction of tyrosinase activity” value in the data set with tyrosinase [1] (20 micromolar) is reported as “greater than 40%”; in the data set on tyrosinase [1] (30 micromolar), 50%. Moreover, the “inhibition of melanin production” value with melanin production (3.125 μM and lower concentrations) is “very efficient at inhibiting melanin production”. Besides, in the data set on zebrafish embryos [2] (10 and 20 micromolar), the “percent viability at day four post fertilization” value is given as “No deleterious effects on zebrafish viability”. Also, the “toxicity (viable and dead embryos at 1 to 4 dpf)” value in the data set with zebrafish embryos [2] (10 and 20 micromolar from 4 hours post-fertilization) was “low toxicity at effective concentrations”. Also, the pigmentation of embryos result in the data set on zebrafish embryos [3] (2.5, five and 10 micromolar, exposure 4 to 48 hours post-fertilization, vs DMSO) is “visible decrease in pigmentation”; in the data set with zebrafish embryos [3] (treated at 38 hours post-fertilization, 5, 10, 15 micromolar, six hours and 24 hours after addition) it was “reduced pigmentation at all dosages”. The “melanogenesis (melanin OD 410; ratio to protein OD 562)” value in [4] (IBMX 100 micromolar plus 0.625, 1.25, 2.5 or five micromolar ML233) is “reduced melanogenesis in mammalian melanoma cells at all dosages”. In addition, the B16F10 cells survival result in data set [4] (between 0.625 and 5 μM) is listed as “without affecting B16F10 cells survival”. Further, the “melanoma-cell pigmentation (absorbance quantification of melanin)” value in data set [4] (concentrations as low as 0.625 μM) is given as “significantly reduced”. Moreover, the pIC50 in data set [5] was 5.78; in [11] (B16F10, read-out: concentration giving 50% reduction in cell viability), 5.00 to 5.30; in data set [11] (B16F10 proliferation, read-out: in vitro IC50), 5.00. Further, the “mitfa and tyr gene expression in melanocytes (in situ hybridization)” value in the data set on mitfa and tyr genes (2 dpf after 1 day of 15 μM) is on record as “still expressed in melanocytes”. For the same compound, the “tyr mRNA detection (in situ hybridization)” value with mitfa and tyr genes is on record as “highly detectable”. In the data set on zebrafish embryos [6], the “impact on biological processes (GSEA)” value is “did not significantly impact biological processes”. The “tyrosinase expression (Western blot)” value in the data set on tyrosinase [7] is reported as “tyrosinase expression was inhibited”. The “percent of tyrosinase activity compared with PTU” value with tyrosinase [8] (10 micromolar and 15 micromolar ML233 groups) is recorded as “comparable to PTU”. Moreover, the tyrosinase activity result in the data set with tyrosinase [8] (concentration as low as 0.5 micromolar) is on record as “significantly reduced”. In data set [9] (5 μM and greater), the “tyr expression by RT-qPCR” value is “Significantly decreased”. Moreover, the “maximum reduction of tyr expression” value in data set [9] (20 μM, compared to DMSO-treated embryos) is recorded as roughly 40%. The “mitfa expression by RT-qPCR” value in [9] (any concentration) is “not significantly dysregulated”. The “tyr, dct, and mitfa mRNA expression by RT-qPCR” value in data set [9] (embryos at 2 dpf after 1 day of treatment) is reported as “mild reduction of gene expression”. Further, in the data set on B16F10 (murine melanoma), the pigmentation of cells result is “strong reduction in the pigmentation”. Moreover, the “TYR protein expression normalized with Beta-actin” value with B16F10 (murine melanoma) (vs DMSO) is recorded as “no significant reduction of TYR protein expression”. The “melanin production (percent melanin quantity)” value with zebrafish embryos [10] (0.5 to 15 micromolar, 4 to 48 hours post-fertilization) is listed as “significantly inhibited melanin production at all levels tested”. Besides, the “melanin quantity compared with PTU” value in the data set on zebrafish embryos [10] (5 micromolar and above) is “comparable to treatment with PTU”. Besides, the “reduction of melanogenesis (L-DOPA to melanin)” value in the data set with mushroom TYR is listed as roughly 40%. Also, the viability result in [12] (between 0.001 μM and 10 μM) was “did not affect ME2319B viability at any concentration tested”.
Regarding “[(E)-(5-methyl-4-oxo-2-propan-2-ylcyclohexa-2,5-dien-1-ylidene)amino]4-methylbenzenesulfonate [(ii)]”, the “inhibition of melanin production” value with melanin production (setting [13]) is recorded as “Inhibition of melanin production was also observed”.
Consider `CC1=CC(=O)C(C(C)C)=C/C1=N\OS(=O)(=O)c1ccccc1` [(iii), [(E)-(2-methyl-4-oxo-5-propan-2-ylcyclohexa-2,5-dien-1-ylidene)amino]benzenesulfonate], for which, in the data set with melanin production, the toxicity entry is “higher toxicity”. Besides, in the data set with melanin production (setting [13]), the “inhibition of melanin production” value was “Inhibition of melanin production was also observed”.
In the case of `CN[C@@H]1C[C@H]2O[C@@](C)([C@@H]1OC)n1c3ccccc3c3c4c(c5c6ccccc6n2c5c31)C(=O)NC4` [STS, staurosporine, reference compound], in [12] (Homo sapiens), the pIC50 is 8.60.
